The values that follow come from US4929736A, “Latent isocynate derivatives useful for deactivating enzymes” (Board of Trustees of the Wichita State University, priority 1986, dated 1990).

Common to all, as to assay type: biochemical
For one assay, the target named is alpha-Chymotrypsin (Bos taurus, UniProt P00766). In words: Inactivation of chymotrypsin. The conditions noted are these: for Inhibition of chymotrypsin (in words): comparable conditions.
The target of assay [1] is T1, Human leukocyte elastase (HLE) (Homo sapiens, UniProt P08246).
T1 construct: purchased Elastin Products, St. Louis, Mo
T1 sequence (P08246 30-267): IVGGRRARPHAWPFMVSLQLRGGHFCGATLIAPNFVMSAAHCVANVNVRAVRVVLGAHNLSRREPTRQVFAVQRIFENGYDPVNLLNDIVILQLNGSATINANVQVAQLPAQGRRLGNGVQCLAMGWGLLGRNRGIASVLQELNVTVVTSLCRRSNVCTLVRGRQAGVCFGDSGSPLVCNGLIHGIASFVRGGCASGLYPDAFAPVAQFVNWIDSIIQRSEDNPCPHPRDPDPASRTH
In words: Spectrophotometric assay of HLE inactivation (in vitro). Here is the method: The appropriate amount of inhibitor in acetonitrile was mixed with PPE in phosphate buffer solution and placed in a constant temperature bath. Aliquots were withdrawn at different time intervals and transferred to a cuvette containing 100 uL of substrate, 140 uL of acetonitrile, and 2 mL of phosphate buffer, pH 6.5. After incubating for 30 seconds, the absorbance change was monitored for two minutes at 347.5 nm. […] Controlled reactions for 100% PPE activity were run in the presence of acetonitrile. A similar procedure was followed for HLE.
(§1) The reaction of an irreversible inhibitor with PPE and HLE may be illustrated by the scheme shown below: [drawing 5] where EI is the noncovalently bound enzyme-inactivator complex and E-I is the final product with the inhibitor covalently bound to the enzyme. The kinetics data were analyzed according to known procedures. The apparent pseudo-first-order inactivation rate constants were determined from the slopes of semilogarithmic plots of enzymatic activity remaining versus time using the following equation: [formula] where Et /EO is the amount of active enzyme remaining after time "t".
The assay procedure used was the procedure identified relative to the tests above in Table I.
(kobsd) were determined by plotting in [E]t /[E]o vs time.

In assay [2] the target is Porcine pancreatic elastase (PPE) (Sus scrofa, UniProt P00772). In words: Spectrophotometric assay of PPE inactivation (in vitro). Here is the method: The enzyme assays used to evaluate the potency of the inhibitors in vitro were performed as follows: PPE was assayed spectrophotometrically at 347.5 nm with (tert-butoxycarbonyl)-alanyl-p-nitrophenol in 0.05 M phosphate buffer, pH 6.5, 25° C., or by using succinyl-L-trialanyl-p-nitroanilide in 0.1 M Tris buffer, pH 8.0, at 410 nm. HLE was assayed spectrophotometrically at 410 nm with succinyl-L-trialanyl-p-nitroanilide or methoxy succinyl ala-ala-pro-val-p-nitroanilide (As describe by K. Wakajima et al in the J. Biol. Chem, 254, 4027-4032 (1979) and T. Teshima et al, in J. Biol. Chem 257, 5085-5091 (1982). The potency of an inhibitor is determined by obtaining a kinetic determination of the bimolecular rate constant K3 /Ki (or Robsd /[I]). The HLE used in these studies may be obtained from Elastin Products, St. Louis, Mo.) in 0.1 M Tris buffer, pH 8.0.
The appropriate amount of inhibitor in acetonitrile was mixed with PPE in phosphate buffer solution and placed in a constant temperature bath. Aliquots were withdrawn at different time intervals and transferred to a cuvette containing 100 uL of substrate, 140 uL of acetonitrile, and 2 mL of phosphate buffer, pH 6.5. After incubating for 30 seconds, the absorbance change was monitored for two minutes at 347.5 nm. The inhibitor-to-enzyme ratios varied between 50 and 200, and the incubation intervals were shortened or lengthened depending upon the potency of the inhibitor. Controlled reactions for 100% PPE activity were run in the presence of acetonitrile. A similar procedure was followed for HLE.
as §1, with “"t". Inhibition is generally expressed in terms of k3 /Ki, M^-1 s^-1, wherein Ki is the disassociation constant for the enzyme inhibitor complex and k3 is a limiting rate constant for the irreversible loss of enzymatic activity.” for “"t".”
Table I below illustrates the inhibition found with assays of nine amino-acid-derived azolides against PPE and HLE.

“Also recorded” adds a separate entry of the source. Like-named read-outs stand apart in the source and are kept apart here.

Sequence of Porcine pancreatic elastase (PPE) (P00772 27-266): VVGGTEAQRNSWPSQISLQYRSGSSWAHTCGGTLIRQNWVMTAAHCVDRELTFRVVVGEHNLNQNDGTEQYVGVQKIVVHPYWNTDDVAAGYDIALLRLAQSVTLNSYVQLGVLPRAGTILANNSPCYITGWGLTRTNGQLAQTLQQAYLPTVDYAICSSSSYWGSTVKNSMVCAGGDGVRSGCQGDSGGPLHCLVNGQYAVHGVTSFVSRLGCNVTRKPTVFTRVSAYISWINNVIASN

For the compound `CCC[C@H](NC(=O)S(=O)(=O)O)C(=O)OC` [Compound 4, Table II], the “Inhibition of chymotrypsin (in words)” value on alpha-Chymotrypsin is recorded as “no effect”. The kinact/KI in assay [1] (Table II monopotassium sulfonate salts, read-out: k2 /Ki (HLE)) stood at 860 M⁻¹ s⁻¹. Also, the “Inhibition of HLE (in words)” value in assay [1] (listed as L-norvaline sulfonate salt) is given as “very potent inhibitors; also recorded: effective inhibitors”. Also, the “Inhibition of PPE (in words)” value in assay [2] is listed as “no effect”.

In the case of `CS(=O)(=O)ON1C(=O)CC(Cc2ccccc2)C1=O` (racemic) [BENZYL, OSO2 CH3, (dl)-3-Benzyl-N-(methanesulfonyloxy) succinimide], the kinact/KI at alpha-Chymotrypsin (Table V footnote a, read-out: kobsd /[I], alpha-Chymotrypsin) was 9000 M⁻¹ s⁻¹; in assay [1] (Table V, succinimide derivatives, read-out: kobsd /[I], inhibition of leukocyte elastase) it was 1170 M⁻¹ s⁻¹. Also, the “Inhibition of chymotrypsin (in words)” value at alpha-Chymotrypsin was “efficiently inactivated”. Besides, the “Inhibition of PPE (in words)” value in assay [2] was “unaffected”.
